# Laboratory results taken from ChEMBL document CHEMBL2021822, “Acylated Gly-(2-cyano)pyrrolidines as inhibitors of fibroblast activation protein (FAP) and the issue of FAP/prolyl oligopeptidase (PREP)-selectivity” (Bioorg Med Chem Lett, 2012).
# Tests used:
# [1] = Inhibition of bovine testes DPP9 assessed as pNA release from Ala-Pro-p-nitroanilide substrate pre-incubated with enzyme for 15 min prior to substrate addition by […]; set-up: species or system Bos taurus
# Prolyl endopeptidase FAP = target: T1, Prolyl endopeptidase FAP (Mus musculus, UniProt P97321); assay: Inhibition of mouse recombinant FAP expressed in HEK293 cells assessed as pNA release from Ala-Pro-p-nitroanilide pre-incubated with enzyme for 15 mins prior to substrate addition by […]; format: cell-based
# T1 sequence (P97321 whole entry): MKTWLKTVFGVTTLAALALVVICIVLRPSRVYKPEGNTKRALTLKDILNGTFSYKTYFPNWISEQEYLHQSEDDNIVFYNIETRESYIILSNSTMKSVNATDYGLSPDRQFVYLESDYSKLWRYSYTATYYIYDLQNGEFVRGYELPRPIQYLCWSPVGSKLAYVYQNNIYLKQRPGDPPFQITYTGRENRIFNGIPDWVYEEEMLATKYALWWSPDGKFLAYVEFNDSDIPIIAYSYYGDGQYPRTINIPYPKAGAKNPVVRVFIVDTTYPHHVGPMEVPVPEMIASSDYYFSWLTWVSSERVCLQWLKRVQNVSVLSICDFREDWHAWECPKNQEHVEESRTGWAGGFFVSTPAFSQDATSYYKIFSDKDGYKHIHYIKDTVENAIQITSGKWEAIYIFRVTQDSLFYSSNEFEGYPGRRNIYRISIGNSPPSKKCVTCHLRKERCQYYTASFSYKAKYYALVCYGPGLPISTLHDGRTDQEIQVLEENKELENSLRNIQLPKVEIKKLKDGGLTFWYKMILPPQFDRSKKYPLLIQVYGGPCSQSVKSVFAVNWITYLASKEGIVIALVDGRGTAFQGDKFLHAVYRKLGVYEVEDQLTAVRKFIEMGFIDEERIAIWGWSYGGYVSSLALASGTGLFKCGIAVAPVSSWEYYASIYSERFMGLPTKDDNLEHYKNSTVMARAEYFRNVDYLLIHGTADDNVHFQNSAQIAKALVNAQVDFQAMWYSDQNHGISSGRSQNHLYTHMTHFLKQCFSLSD
# Dipeptidyl peptidase 2 = Dipeptidyl peptidase 2 (Homo sapiens, UniProt Q9UHL4); assay: Inhibition of human seminal plasma DPP2 assessed as pNA release from Lys-Ala-p-nitroanilide substrate pre-incubated with enzyme for 15 min prior to substrate addition by […]
# Dipeptidyl peptidase 4 = Dipeptidyl peptidase 4 (Homo sapiens, UniProt P27487); assay: Inhibition of human seminal plasma DPP4 assessed as pNA release from Gly-Pro-p-nitroanilide substrate pre-incubated with enzyme for 15 min prior to substrate addition by fluorescence technique
# Prolyl endopeptidase = target: T2, Prolyl endopeptidase (Homo sapiens, UniProt P48147); assay: Inhibition of human recombinant PREP expressed in Escherichia coli assessed as pNA release from Z-Gly-Pro-p-nitroanilide pre-incubated with enzyme for 15 mins prior to substrate addition by […]
# T2 sequence (P48147 whole entry): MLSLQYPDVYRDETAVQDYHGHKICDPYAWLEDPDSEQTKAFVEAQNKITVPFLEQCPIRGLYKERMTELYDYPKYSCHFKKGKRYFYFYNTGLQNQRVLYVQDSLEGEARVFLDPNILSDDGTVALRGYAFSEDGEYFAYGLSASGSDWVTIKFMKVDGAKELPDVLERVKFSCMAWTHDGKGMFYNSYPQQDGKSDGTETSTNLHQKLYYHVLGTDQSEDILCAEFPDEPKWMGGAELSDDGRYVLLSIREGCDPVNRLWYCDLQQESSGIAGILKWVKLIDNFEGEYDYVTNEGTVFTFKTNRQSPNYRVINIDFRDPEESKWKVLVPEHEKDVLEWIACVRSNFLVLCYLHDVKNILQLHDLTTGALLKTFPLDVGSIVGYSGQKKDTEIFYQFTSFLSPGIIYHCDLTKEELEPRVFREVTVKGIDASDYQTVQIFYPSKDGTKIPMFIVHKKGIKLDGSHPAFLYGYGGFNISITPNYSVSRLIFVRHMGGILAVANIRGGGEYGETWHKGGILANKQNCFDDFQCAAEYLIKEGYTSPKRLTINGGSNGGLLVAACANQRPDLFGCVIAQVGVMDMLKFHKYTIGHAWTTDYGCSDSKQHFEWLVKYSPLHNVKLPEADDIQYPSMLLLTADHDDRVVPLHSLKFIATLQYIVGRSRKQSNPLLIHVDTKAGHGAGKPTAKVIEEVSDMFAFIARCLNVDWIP
# Chain of Dipeptidyl peptidase 4 (P27487 whole entry): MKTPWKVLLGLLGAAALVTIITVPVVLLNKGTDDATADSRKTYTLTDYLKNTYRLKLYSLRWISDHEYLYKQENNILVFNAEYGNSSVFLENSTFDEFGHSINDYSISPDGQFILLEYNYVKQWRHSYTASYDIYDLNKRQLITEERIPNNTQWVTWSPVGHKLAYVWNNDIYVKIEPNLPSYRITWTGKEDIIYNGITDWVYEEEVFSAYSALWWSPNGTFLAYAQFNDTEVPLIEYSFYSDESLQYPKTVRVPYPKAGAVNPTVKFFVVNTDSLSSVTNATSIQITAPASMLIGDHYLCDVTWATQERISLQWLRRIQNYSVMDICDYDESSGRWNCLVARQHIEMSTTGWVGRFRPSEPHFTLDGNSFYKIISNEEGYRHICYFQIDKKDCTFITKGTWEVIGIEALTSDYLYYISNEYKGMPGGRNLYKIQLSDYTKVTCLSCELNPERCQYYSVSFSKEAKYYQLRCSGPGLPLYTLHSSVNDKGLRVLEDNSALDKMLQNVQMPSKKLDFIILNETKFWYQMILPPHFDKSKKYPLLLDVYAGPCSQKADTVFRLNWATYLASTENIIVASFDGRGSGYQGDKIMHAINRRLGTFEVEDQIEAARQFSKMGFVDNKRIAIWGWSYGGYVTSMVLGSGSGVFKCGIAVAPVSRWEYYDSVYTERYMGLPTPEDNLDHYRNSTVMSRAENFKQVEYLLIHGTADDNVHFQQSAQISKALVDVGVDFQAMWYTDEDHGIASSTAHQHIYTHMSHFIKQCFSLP
SMILES,IC50 [1],IC50 (Prolyl endopeptidase FAP),IC50 (Dipeptidyl peptidase 2),IC50 (Dipeptidyl peptidase 4),IC50 (Prolyl endopeptidase)
N#C[C@@H]1CCCN1C(=O)CNC(=O)c1cccc2ccccc12,> 10 µM,0.67 µM,> 100 µM,> 100 µM,–
CC1C[C@@H](C#N)N(C(=O)CNC(=O)c2ccccc2)C1 (stereo partly specified),> 10 µM,> 100 µM,> 100 µM,> 100 µM,> 100 µM
N#C[C@@H]1CCCN1C(=O)CNC(=O)CCc1ccccc1,> 100 µM,9.4 µM,> 100 µM,> 100 µM,–
N#C[C@@H]1CCCN1C(=O)CNC(=O)Cc1cccs1,> 100 µM,6.8 µM,> 100 µM,> 100 µM,–
N#C[C@@H]1CCCN1C(=O)CNC(=O)Cc1ccc(Cl)cc1,> 100 µM,3.9 µM,> 100 µM,> 100 µM,–
N#C[C@@H]1CCCN1C(=O)CNC(=O)C(c1ccc(Cl)cc1)c1ccc(Cl)cc1,> 100 µM,1.9 µM,> 100 µM,> 100 µM,–
N#C[C@@H]1CCCN1C(=O)CNC(=O)c1ccc(OC(F)(F)F)cc1,> 100 µM,4.7 µM,> 100 µM,> 100 µM,–
COc1ccc(C(=O)NCC(=O)N2CCC[C@H]2C#N)cc1OC1CCCC1,> 100 µM,3.7 µM,> 100 µM,> 100 µM,> 10 µM
N#C[C@@H]1CCCN1C(=O)CNC(=O)c1c(Cl)cccc1Cl,> 100 µM,14.6 µM,> 100 µM,> 100 µM,> 100 µM
N#C[C@@H]1CCCN1C(=O)CNC(=O)c1ccc(-c2cccs2)cc1,20.2 µM,8.1 µM,> 100 µM,13.1 µM,–
N#C[C@@H]1CCCN1C(=O)CNC(=O)c1cccc(-c2ccccc2)c1,> 100 µM,1.4 µM,> 100 µM,> 100 µM,–
N#C[C@@H]1CCCN1C(=O)CNC(=O)c1ccc2ccccc2c1,> 10 µM,7.5 µM,> 100 µM,> 100 µM,–
COc1cccc(S(=O)(=O)NCC(=O)N2CCC[C@H]2C#N)c1,> 100 µM,5.1 µM,> 100 µM,> 100 µM,> 10 µM
N#C[C@@H]1CCCN1C(=O)CNC(=O)CN1CCN(C(c2ccc(F)cc2)c2ccc(F)cc2)CC1,> 100 µM,2.7 µM,> 100 µM,> 100 µM,> 10 µM
N#C[C@@H]1CCCN1C(=O)CNC(=O)CCC(=O)NCc1ccc(F)cc1,> 100 µM,12 µM,> 100 µM,> 100 µM,> 50 µM
N#C[C@@H]1CCCN1C(=O)CNC(=O)CCC(=O)NC(c1ccc(F)cc1)c1ccc(F)cc1,> 100 µM,20 µM,> 100 µM,> 100 µM,> 50 µM
N#C[C@@H]1CCCN1C(=O)CNC(=O)CCC(=O)N1CCN(Cc2ccc(F)cc2)CC1,> 100 µM,10.3 µM,> 100 µM,> 100 µM,> 50 µM
N#C[C@@H]1CCCN1C(=O)CNC(=O)CCC(=O)N1CCN(C(c2ccc(F)cc2)c2ccc(F)cc2)CC1,> 100 µM,19.9 µM,> 100 µM,> 100 µM,> 50 µM
N#C[C@@H]1CCCN1C(=O)CNC(=O)Cn1cc(-c2ccc(F)c(F)c2)nn1,69 µM,1.3 µM,> 100 µM,> 100 µM,> 50 µM
